Assay results as given in patent US20250345295A1, “LMK235 COMPOSITIONS AND METHODS” (UNM Rainforest Innovations, priority 2024, published 2025).

System: mice
Test: Conditioned place preference (CPP) test of addictive potential
Type: in vivo, mouse
Conditions: 5 mg/kg, three conditioning days
Source text: The conditioned place preference (CPP) test was used to compare morphine and LMK235 post-drug behaviors to baseline. Time spent in their assigned drug administration chamber post-drug was divided by the time spent in the chamber during the baseline recording. A score of 1 meant that there was no difference in time spent in either chamber after dosing. A score greater than 1 meant more time was spent in the assigned drug chamber, and a score less than 1 meant less time was spent in the assigned drug chamber.
Mice were assigned either vehicle, morphine (5 mg/kg) or LMK235 (5 mg/kg) and assigned cubicle designation for groups (n=3) as follows: Vehicle-Blank, Vehicle-Striped, Morphine-Blank, Morphine-Striped, LMK-Blank, LMK-Striped. For baseline collection, mice were placed in the middle of the box and allowed access to both chambers for 15 minutes. Time spent in each chamber was recorded. For the subsequent three test days, mice were injected with their assigned drug and placed in their assigned chamber, without access to the other chamber, for 30 minutes. On the final test day, mice were placed in the middle of the box and allowed access to both chambers for 15 minutes. Time spent in each chamber was recorded.

CN1CC[C@]23c4c5ccc(O)c4O[C@H]2[C@@H](O)C=C[C@H]3[C@H]1C5 [morphine]
time in assigned drug chamber post-drug versus baseline (addictive potential): spent more time in their assigned drug chamber
